Assay results taken from patent US6946480B2, “Glutaminyl based DPIV inhibitors” (priority 2002, dated 2005).

How the values were obtained:
[1] = test system: diabetic Zucker rats; experiment: Dose escalation study with oral glucose tolerance test in fatty Zucker rats; format: in vivo, Zucker rats (fa/fa); conditions: for effect on glucose tolerance (OGTT): 2 g/kg glucose
Experimental: N=30 male Zucker rats (fa/fa), mean age 11 weeks (5-12 weeks), mean body weight 350 g (150-400 g), were purchased from Charles River (Sulzfeld, Germany). After delivery they were kept for >12 weeks until nearly all fatty Zucker rats had the characteristics of manifest diabetes mellitus. A group of N=8 animals were recruited for testing three escalating doses of glutaminyl pyrrolidine vs. placebo (saline).
Animals were single-caged under standardized conditions with controlled temperature (22±2° C.) on a 12/12 hours light/dark cycle (light on at 06:00 AM). Sterile standard pelleted chow (ssniff® Soest, Germany) and tap water acidified with HCl were allowed ad libitum.
Fatty Zucker rats of 24-31 weeks (mean: 25 weeks) age, adapted to the housing conditions, were well prepared for the study.
Catheters were implanted into the carotid artery of fatty Zucker rats under general anaesthesia (i.p. injection of 0.25 ml/kg b.w. Rompune® [2%], BayerVital, Germany and 0.5 ml/kg b.w. Ketamin 10, Atarost GmbH & Co., Twistringen, Germany). The animals were allowed to recover for one week. The catheters were flushed with heparin-saline (100 IU/ml) three times per week.
Placebo (1 ml saline, 0.154 mol/l) or escalating doses of glutaminyl pyrrolidine (5, 15 and 50 mg/kg b.w.) were administered to groups of N=8 fatty Zucker rats. 375 mg of glutaminyl pyrrolidine were dissolved in 1000 μl DMSO (E. Merck, Darmstadt; Germany [Dimethyl sulfoxide p.a.]). 10 ml saline were added and 1 ml aliquots, each containing 34.09 mg of glutaminyl pyrrolidine, were stored at −20° C. For preparation of the test substance, dose dependent aliquots were diluted in saline.
After overnight fasting, placebo or test substance were administered to the fatty Zucker rats via feeding tube orally (15 G, 75 mm; Fine Science Tools, Heidelberg, Germany) at −10 min An oral glucose tolerance test (OGTT) with 2 g/kg b.w. glucose (40% solution, B. Braun Melsungen, Melsungen, Germany) was administered at ±0 min via a second feeding tube. Venous blood samples from the tail veins were collected at −30 min, −15 min, ±0 min and at 5, 10, 15, 20, 30, 40, 60, 90 and 120 min into 20 μl glass capillaries, which were placed in standard tubes filled with 1 ml solution for blood glucose measurement.
Glucose levels were measured using the glucose oxidase procedure (Super G Glucose analyzer; Dr. Müller Gerätebau, Freital, Germany).
Statistical evaluations and graphics were performed with PRISM® 3.02 (GraphPad Software, Inc.). All parameters were analysed in a descriptive manner including mean and SD.
N=30 male Zucker rats (fa/fa), mean age 11 weeks (5-12 weeks), mean body weight 350 g (150-400 g), were purchased from Charles River (Sulzfeld, Germany). […]

[2] = Plasma stability (half-life of inhibitory potency in human plasma); format: in vitro ADME
Experimental: In order to investigate the stability of glutaminyl pyrrolidine or glutaminyl thiazolidine in human plasma, the activity of DPIV in plasma was determined at a defined time. The average DPIV activity in human plasma was determined as 43.69 U/ml. In the working solution, the plasma was diluted in 0.9% NaCl to fix the DPIV activity level at 25 U/ml.
Plasma and glutaminyl pyrrolidine or glutaminyl thiazolidine in different concentrations (5*10^−5, 2.5*10^−5, 1.25*10^−5M in plasma) were incubated at 37° C. At defined time points samples were taken using a pipette roboter (Gilson 215, Liquid handler, Gilson) and transferred in a microtiter plate containing 5*10^−5M glycylprolylaminomethylcoumarine in 0.9% NaCl+015% Brij per well. After 6 min the reaction was stopped by addition of isoleucylthiazolidine (5*10^−5M in 0.9% NaCl solution).
Fluorescence measurement was performed against 0.9% NaCl in plasma (reference standard) using a plate reader (HTS7000plus, Applied Biosystems, Weiterstadt, Germany). The half-life of the inhibitory potency of glutaminyl pyrrolidine or glutaminyl thiazolidine was calculated by plotting the enzyme activity versus reaction time.

[3] = biological target: T1, Dipeptidyl Peptidase I (DP I, Cathepsin C) (Rattus norvegicus, UniProt P80067); experiment: Cross reacting enzymes - dipeptidyl peptidase I; format: biochemical; conditions: concentration range 1*10^−5 M-1*10^−7 M
T1 construct: purchased Qiagen GmbH, Hilden, Germany
T1 sequence (P80067 25-134 limits assumed): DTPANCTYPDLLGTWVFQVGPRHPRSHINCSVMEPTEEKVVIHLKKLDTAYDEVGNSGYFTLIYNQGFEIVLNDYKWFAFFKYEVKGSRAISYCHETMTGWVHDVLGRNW
T1 sequence (P80067 230-393 limits assumed): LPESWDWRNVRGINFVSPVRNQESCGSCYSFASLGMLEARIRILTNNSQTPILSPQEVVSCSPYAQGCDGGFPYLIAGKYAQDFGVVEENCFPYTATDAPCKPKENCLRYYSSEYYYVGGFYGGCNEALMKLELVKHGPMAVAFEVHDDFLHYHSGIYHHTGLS
T1 sequence (P80067 394-462 limits assumed): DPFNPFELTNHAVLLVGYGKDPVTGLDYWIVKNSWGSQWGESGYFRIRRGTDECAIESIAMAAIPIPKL
Experimental: Glutaminyl pyrrolidine or glutaminyl thiazolidine were tested for their cross reacting potency against dipeptidyl peptidase I, prolyl oligopeptidase and prolidase.
DP I or cathepsin C is a lysosomal cysteine protease which cleaves off dipeptides from the N-terminus of their substrates (Gutman, H. R. & Fruton, J. S., 1948, J. Biol: Chem., 174, 851-858) . It is classified as a cysteine protease.
The enzyme used was purchased from Qiagen (Qiagen GmbH, Hilden, Germany). In order to get a fully active enzyme, the enzyme was diluted 1000fold in MES buffer pH5,6 (40 mM MES, 4 mM DTT, 4 mM KCl, 2 mM EDTA, 0.015% Brij) and pre-incubated for 30 min at 30° C.
50 μl glutaminyl pyrrolidine or glutaminyl thiazolidine in a concentration range of 1*10^−5 M-1*10^−7 M were admixed with 110 μl buffer-enzyme-mixture. The assay mixture was pre-incubated at 30° C. for 15 min After pre-incubation, 100 μl histidylseryl-β-nitroaniline (2*10^−5 M) were added and measurement of yellow color development due to β-nitroaniline release was performed at 30° C. and […] for 10 min, using a plate reader (HTS7000 plus, Applied Biosystems, Weiterstadt, Germany).
The IC50-values were calculated using Graphit 4.0.15 (Erithacus Software, Ltd., UK).

NC(=O)CC[C@H](N)C(=O)N1CCCC1 [glutaminyl pyrrolidine]
effect on glucose tolerance (OGTT) ([1]; 5 mg/kg b.w. oral): limited improvement of glucose tolerance | effect on blood glucose levels over escalating doses (OGTT) ([1]; 5 mg/kg, 15 mg/kg and 50 mg/kg b.w. oral): dose dependent lowering of elevated blood glucose levels | effect on glucose tolerance (OGTT) ([1]; 15 mg/kg b.w. oral): Significant lowering of elevated blood glucose levels | effect on glucose tolerance (OGTT) ([1]; 50 mg/kg b.w. oral): Significant lowering of elevated blood glucose levels | half-life of the inhibitory potency in human plasma ([2]; 37° C., 5*10^−5, 2.5*10^−5, 1.25*10^−5M): no half-time could be determined | stability in human plasma ([2]; over 22 hours): stable in human plasma over 22 hours | inhibition of DP I enzyme activity [3]: no inhibition
